Assay results: paper PMC12112332, “Characterization of Novel and Known Activators of Cannabinoid Receptor Subtype 2 Reveals Mixed Pharmacology That Differentiates Mycophenolate Mofetil and GW-842,166X from MDA7” (International Journal of Molecular Sciences, 2025)
Read-outs that look alike come from different tables or passages of the source.

Legend:
Assay type in all cases: cell-based
Human CB2 = Human CB2 (Homo sapiens, UniProt P34972); assay: Activity at the human CB2 receptor (thallium flux)
Sequence of Human CB2 (P34972 whole entry): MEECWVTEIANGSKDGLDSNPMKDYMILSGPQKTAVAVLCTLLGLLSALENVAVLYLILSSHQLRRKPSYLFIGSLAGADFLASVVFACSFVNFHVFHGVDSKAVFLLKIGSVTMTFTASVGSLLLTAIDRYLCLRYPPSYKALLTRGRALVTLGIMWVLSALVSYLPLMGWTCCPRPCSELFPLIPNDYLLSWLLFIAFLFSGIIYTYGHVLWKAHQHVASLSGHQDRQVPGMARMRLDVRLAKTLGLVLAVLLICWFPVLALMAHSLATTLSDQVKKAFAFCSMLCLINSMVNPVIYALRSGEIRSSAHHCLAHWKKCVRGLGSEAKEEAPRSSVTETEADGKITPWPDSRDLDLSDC

rat CB2 = target: T1, rat CB2 (Rattus norvegicus, UniProt Q9QZN9); assay: PI hydrolysis (IP1) assay in HEK/Gqi9 cells expressing rat CB2; design: expressed in transfected cells; settings: rCB2/Gqi9 cells
T1 sequence (Q9QZN9 1-360): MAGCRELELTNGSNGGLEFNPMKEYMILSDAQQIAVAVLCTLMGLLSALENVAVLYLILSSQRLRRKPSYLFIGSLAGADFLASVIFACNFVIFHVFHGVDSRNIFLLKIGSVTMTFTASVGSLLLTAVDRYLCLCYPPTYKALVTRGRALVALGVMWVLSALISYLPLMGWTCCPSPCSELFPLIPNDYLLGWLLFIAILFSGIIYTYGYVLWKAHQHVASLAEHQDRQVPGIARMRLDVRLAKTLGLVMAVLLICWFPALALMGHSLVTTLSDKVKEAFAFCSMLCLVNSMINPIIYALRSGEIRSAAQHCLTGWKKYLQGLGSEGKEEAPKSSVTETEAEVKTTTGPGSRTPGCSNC
Procedure: In a complementary assay, we used phosphoinositide (PI) hydrolysis in the presence of the chimeric G protein, Gqi9, to assess activity.
One day prior to experimentation, selected HEK/Gqi9 monoclonal cells stably expressing rat CB2 were plated onto poly-D-lysine coated clear-bottom 384-well plates (15,000 cells per well) in DMEM supplemented with 10% FBS and 20 mM HEPES. Ten minutes prior to the assay, the cell culture medium was replaced with 20 µL 37 °C Hank’s balanced salt solution (HBSS; with Ca^2+, Mg^2+, glucose). IP1 stimulation was then initiated by adding 5 µL of 5× agonist dissolved in HBSS plus 40 mM Li^+, and cells were incubated for an additional hour before aspiration and addition of Lysis Buffer. IP1 levels were determined using the Cisbio HTRF IP-ONE assay kit according to the manufacturer’s instructions, and fluorescence was measured using an Envision plate reader (PerkinElmer, Waltham, MA, USA). Data were acquired as HTRF ratio (665/620) and expressed as nanomolar levels of IP1.

[1] = target: T2, M4 muscarinic receptor expressed in HEK/GIRK cells (no CB receptor) (Homo sapiens, UniProt P08173); assay: Thallium flux assay in parental HEK/GIRK cells (no CB receptor), acetylcholine as agonist; settings: presence of EC20 acetylcholine, cells without CB receptor
T2 construct: host or cells: HEK/GIRK cells without CB receptor
T2 sequence (P08173 1-479): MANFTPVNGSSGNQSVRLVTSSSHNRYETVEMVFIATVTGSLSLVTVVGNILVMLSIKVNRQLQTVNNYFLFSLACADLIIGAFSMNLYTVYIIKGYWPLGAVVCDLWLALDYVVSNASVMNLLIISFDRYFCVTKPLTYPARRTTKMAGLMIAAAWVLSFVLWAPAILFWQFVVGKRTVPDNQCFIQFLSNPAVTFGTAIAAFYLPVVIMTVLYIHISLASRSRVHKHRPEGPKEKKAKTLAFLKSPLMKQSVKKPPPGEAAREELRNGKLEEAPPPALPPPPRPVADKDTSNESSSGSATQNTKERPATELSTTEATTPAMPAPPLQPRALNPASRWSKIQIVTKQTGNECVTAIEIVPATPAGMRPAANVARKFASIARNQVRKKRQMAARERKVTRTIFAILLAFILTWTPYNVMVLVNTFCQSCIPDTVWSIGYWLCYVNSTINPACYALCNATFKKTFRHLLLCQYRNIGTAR
From the text: Mycophenolate mofetil is an immunosuppressant used to prevent organ transplant rejection and to treat autoimmune disorders such as lupus. To determine if mycophenolate mofetil exerts its activity in the thallium flux assay through rCB2, we tested it for activity in HEK cells expressing GIRK channels but not rCB2. Submaximal concentrations of acetylcholine were used as the agonist, targeting an M4 muscarinic receptor expressed in these HEK/GIRK cells. […] It was also critical to determine if mycophenolate mofetil was selective for the rCB2 versus rCB1 receptors, as activation of rCB1 receptors can have negative side effects, including anxiety, paranoia, and psychosis. […]
Thallium flux assays were performed as previously described in Niswender et al., 2008 [31]. […] Thallium flux was measured using the Hamamatsu FDSS/μCELL Kinetic Plate Imager (Bridgewater, NJ, USA). After the establishment of a fluorescence baseline (excitation, 480 ± 20 nm; emission, 540 ± 30 nm), 20 µL (2×) of test compound was added to the cells at 1 s and the response was measured. […] Raw kinetic data were analyzed in a multi-step process: (1) Fluorescence readings for each time point in a well were divided by the fluorescence reading at the initial time point to account for differences in cell number, non-uniform illumination, and dye-loading. […]

human CB2 receptor % Max (Human CB2) | EC50 (Human CB2; read-out: human CB2 receptor pEC50 (converted)) | PI hydrolysis Max IP1, absence of 2-AG (rat CB2; absence of 2-AG, IP1 concentration) | EC50 (rat CB2; absence of 2-AG, read-out: PI hydrolysis potency, absence of 2-AG) | PI hydrolysis Max IP1, presence of 2-AG (rat CB2; presence of EC20 2-AG, IP1 concentration) | EC50 (rat CB2; presence of EC20 2-AG, read-out: PI hydrolysis potency, presence of 2-AG) | HEK GIRK (+) ACh pEC50 ± SEM % Max ± SEM [1] | SMILES
36 ± 4% | 2000 nM | 438 ± 32 nM | 521 nM | 633 ± 122 nM | 700 nM | Inactive | COc1c(C)c2c(c(O)c1C/C=C(\C)CCC(=O)OCCN1CCOCC1)C(=O)OC2 [Mycophenolate mofetil]
– | – | – | – | – | – | Inactive | COc1c(C)c2c(c(O)c1C/C=C(\C)CCC(=O)O)C(=O)OC2 [Mycophenolic acid]
